Measured values: publication PMC9377102, “Toxicity and toxicokinetics of the ethanol extract of Zuojin formula” (BMC Complementary Medicine and Therapies, 2022)
Where two headings read alike, the source gives them in different places.

Columns and labels:
[1] = system: CYP3A4, CYP1A2 and CYP2D6; details: cited from earlier work
[2] = Toxicokinetics test in the satellite groups (UPLC-MS/MS of rat plasma); type: in vivo; details: for AUC(0-t) / Cmax / Tmax / half-life: SD, rat, plasma, po; for half-life: read-out: T1/2 mean (converted)
Procedure: SD rats (5 ~ 6 weeks, 3/group/sex) were randomly allocated to three treatment groups and given the same dosage as those in the repeated toxicity experiment for 28 days. […] Carbamazepine was chosen as the internal standard (IS). The blood samples were centrifuged to obtain plasma. Then, 300 μL of acetonitrile containing 40 ng of IS was added to 100 μL of plasma. After vortexing for 1 min, the mixture was centrifuged at 17,000 rpm for 15 min at 4 °C. The supernatant of each sample was injected into a UPLC–MS/MS system for determination. The injection volume was 1 μL. UPLC–MS analysis was performed on a Thermo Fisher Scientific Ultimate 3000 UPLC system (San Jose, USA) and an API 4000 QTRAP mass spectrometer (Foster City, USA) equipped with an ESI source. The mobile phase consisted of 2 solvents: (A) water containing 0.1% formic acid and (B) 100% acetonitrile. For MS, multiple reaction monitoring (MRM) in positive ion mode was used as the scanning mode for the main components and IS in the plasma samples. The dwell time (DT), collision energy (CE), quadrupole 1 pre-rod bias (Q1) and quadrupole 3 pre-rod bias (Q3) are listed in Table 3.

[3] = female, female rats, Day 1, highest dose (berberine 72.08, epiberberine 7.42, coptisine 7.42, palmatine 18.26, jatrorrhizine 2.80, columbamine 5.93 mg/kg)
[4] = female, female rats, Day 1, middle dose (berberine 24.03, epiberberine 2.47, coptisine 2.47, palmatine 6.09, jatrorrhizine 0.93, columbamine 1.98 mg/kg)
[5] = female, female rats, Day 28, highest dose (berberine 72.08, epiberberine 7.42, coptisine 7.42, palmatine 18.26, jatrorrhizine 2.80, columbamine 5.93 mg/kg)
[6] = female, female rats, Day 28, lowest dose (berberine 8.01, epiberberine 0.82, coptisine 1.38, palmatine 2.03, jatrorrhizine 0.31, columbamine 0.66 mg/kg)
[7] = female, female rats, Day 28, middle dose (berberine 24.03, epiberberine 2.47, coptisine 2.47, palmatine 6.09, jatrorrhizine 0.93, columbamine 1.98 mg/kg)
[8] = male, male rats, Day 1, lowest dose (berberine 8.01, epiberberine 0.82, coptisine 1.38, palmatine 2.03, jatrorrhizine 0.31, columbamine 0.66 mg/kg)
[9] = male, male rats, Day 1, middle dose (berberine 24.03, epiberberine 2.47, coptisine 2.47, palmatine 6.09, jatrorrhizine 0.93, columbamine 1.98 mg/kg)
[10] = male, male rats, Day 28, highest dose (berberine 72.08, epiberberine 7.42, coptisine 7.42, palmatine 18.26, jatrorrhizine 2.80, columbamine 5.93 mg/kg)
[11] = male, male rats, Day 28, lowest dose (berberine 8.01, epiberberine 0.82, coptisine 1.38, palmatine 2.03, jatrorrhizine 0.31, columbamine 0.66 mg/kg)
[12] = male, male rats, Day 28, middle dose (berberine 24.03, epiberberine 2.47, coptisine 2.47, palmatine 6.09, jatrorrhizine 0.93, columbamine 1.98 mg/kg)

In the case of `COc1cc2c(cc1O)CC[n+]1cc3c(OC)c(OC)ccc3cc1-2` [jatrorrhizine], the “Metabolism by CYP3A4, CYP1A2 and CYP2D6” value [1] is given as “metabolized”, the AUC(0-t) ([2]; female, 0.4 g/kg, female rats, Day 1, low dose TAZF 0.4 g/kg by gavage, read-out: AUC0-t) is given as 25.6 ± 30 ng·h/mL and the Cmax ([2]; female, 0.4 g/kg, female rats, Day 1, low dose TAZF 0.4 g/kg by gavage, read-out: Cmax) is given as 11 ± 7.79 ng/mL. For the same molecule, the AUC(0-t) ([2]; female, 0.4 g/kg, female rats, Day 28, low dose TAZF 0.4 g/kg by gavage, read-out: AUC0-t) was 23.9 ± 27.7 ng·h/mL, the Cmax ([2]; female, 0.4 g/kg, female rats, Day 28, low dose TAZF 0.4 g/kg by gavage, read-out: Cmax) was 11.2 ± 15 ng/mL and the AUC(0-t) ([2]; female, 3.7 g/kg, female rats, Day 1, high dose TAZF 3.7 g/kg by gavage, read-out: AUC0-t) was 22.1 ± 4.83 ng·h/mL. It also gave a Cmax ([2]; female, 3.7 g/kg, female rats, Day 1, high dose TAZF 3.7 g/kg by gavage, read-out: Cmax) of 14.8 ± 10.7 ng/mL, an AUC(0-t) ([2]; female, 3.7 g/kg, female rats, Day 28, high dose TAZF 3.7 g/kg by gavage, read-out: AUC0-t) of 11.4 ± 1.79 ng·h/mL and a Cmax ([2]; female, 3.7 g/kg, female rats, Day 28, high dose TAZF 3.7 g/kg by gavage, read-out: Cmax) of 2.08 ± 0.41 ng/mL. For the same molecule, the Tmax [2, 3] was 0.5 h, the AUC(0-t) ([2]; female, female rats, Day 1, highest dose (berberine 72.08, epiberberine 7.42, coptisine 7.42, palmatine 18.26, jatrorrhizine 2.80, columbamine 5.93 mg/kg), read-out: AUC0-t mean) was 22.1 ng·h/mL and the Cmax ([2]; female, female rats, Day 1, highest dose (berberine 72.08, epiberberine 7.42, coptisine 7.42, palmatine 18.26, jatrorrhizine 2.80, columbamine 5.93 mg/kg), read-out: Cmax mean) was 14.8 ng/mL. It also gave a half-life [2, 3] of 3.96 h, an AUC(0-t) ([2]; female, female rats, Day 1, lowest dose (berberine 8.01, epiberberine 0.82, coptisine 1.38, palmatine 2.03, jatrorrhizine 0.31, columbamine 0.66 mg/kg), read-out: AUC0-t mean) of 25.6 ng·h/mL and a Cmax ([2]; female, female rats, Day 1, lowest dose (berberine 8.01, epiberberine 0.82, coptisine 1.38, palmatine 2.03, jatrorrhizine 0.31, columbamine 0.66 mg/kg), read-out: Cmax mean) of 11 ng/mL. It also gave a half-life ([2]; female, female rats, Day 1, lowest dose (berberine 8.01, epiberberine 0.82, coptisine 1.38, palmatine 2.03, jatrorrhizine 0.31, columbamine 0.66 mg/kg)) of 2.64 h, a Tmax [2, 4] of 0.83 h and an AUC(0-t) ([2]; female, female rats, Day 1, middle dose (berberine 24.03, epiberberine 2.47, coptisine 2.47, palmatine 6.09, jatrorrhizine 0.93, columbamine 1.98 mg/kg), read-out: AUC0-t mean) of 19.9 ng·h/mL. The Cmax ([2]; female, female rats, Day 1, middle dose (berberine 24.03, epiberberine 2.47, coptisine 2.47, palmatine 6.09, jatrorrhizine 0.93, columbamine 1.98 mg/kg), read-out: Cmax mean) was 14.6 ng/mL, the half-life [2, 4] was 3.57 h and the Tmax [2, 5] was 1.33 h. It also gave an AUC(0-t) ([2]; female, female rats, Day 28, highest dose (berberine 72.08, epiberberine 7.42, coptisine 7.42, palmatine 18.26, jatrorrhizine 2.80, columbamine 5.93 mg/kg), read-out: AUC0-t mean) of 11.4 ng·h/mL, a Cmax ([2]; female, female rats, Day 28, highest dose (berberine 72.08, epiberberine 7.42, coptisine 7.42, palmatine 18.26, jatrorrhizine 2.80, columbamine 5.93 mg/kg), read-out: Cmax mean) of 2.08 ng/mL and a half-life [2, 5] of 4.98 h. The Tmax [2, 6] was 4.17 h, the AUC(0-t) ([2]; female, female rats, Day 28, lowest dose (berberine 8.01, epiberberine 0.82, coptisine 1.38, palmatine 2.03, jatrorrhizine 0.31, columbamine 0.66 mg/kg), read-out: AUC0-t mean) was 23.9 ng·h/mL and the Cmax ([2]; female, female rats, Day 28, lowest dose (berberine 8.01, epiberberine 0.82, coptisine 1.38, palmatine 2.03, jatrorrhizine 0.31, columbamine 0.66 mg/kg), read-out: Cmax mean) was 11.2 ng/mL. It also gave a half-life [2, 6] of 3.39 h, a Tmax [2, 7] of 1 h and an AUC(0-t) ([2]; female, female rats, Day 28, middle dose (berberine 24.03, epiberberine 2.47, coptisine 2.47, palmatine 6.09, jatrorrhizine 0.93, columbamine 1.98 mg/kg), read-out: AUC0-t mean) of 3.87 ng·h/mL. For the same molecule, the Cmax ([2]; female, female rats, Day 28, middle dose (berberine 24.03, epiberberine 2.47, coptisine 2.47, palmatine 6.09, jatrorrhizine 0.93, columbamine 1.98 mg/kg), read-out: Cmax mean) was 1.29 ng/mL, the half-life [2, 7] was 5.33 h and the T1/2 mean ([2]; male rats, Day 1, highest dose (berberine 72.08, epiberberine 7.42, coptisine 7.42, palmatine 18.26, jatrorrhizine 2.80, columbamine 5.93 mg/kg)) was 9.68 h. For the same molecule, the AUC(0-t) ([2]; male, 0.4 g/kg, male rats, Day 1, low dose TAZF 0.4 g/kg by gavage, read-out: AUC0-t) was 52 ± 20.4 ng·h/mL, the Cmax ([2]; male, 0.4 g/kg, male rats, Day 1, low dose TAZF 0.4 g/kg by gavage, read-out: Cmax) was 11.8 ± 10.8 ng/mL and the AUC(0-t) ([2]; male, 0.4 g/kg, male rats, Day 28, low dose TAZF 0.4 g/kg by gavage, read-out: AUC0-t) was 8.62 ± 3.21 ng·h/mL. For the same molecule, the Cmax ([2]; male, 0.4 g/kg, male rats, Day 28, low dose TAZF 0.4 g/kg by gavage, read-out: Cmax) was 16.4 ± 16 ng/mL, the AUC(0-t) ([2]; male, 3.7 g/kg, male rats, Day 1, high dose TAZF 3.7 g/kg by gavage, read-out: AUC0-t) was 101 ± 35.3 ng·h/mL and the Cmax ([2]; male, 3.7 g/kg, male rats, Day 1, high dose TAZF 3.7 g/kg by gavage, read-out: Cmax) was 17.7 ± 11 ng/mL. It also gave an AUC(0-t) ([2]; male, 3.7 g/kg, male rats, Day 28, high dose TAZF 3.7 g/kg by gavage, read-out: AUC0-t) of 25.6 ± 6.74 ng·h/mL, a Cmax ([2]; male, 3.7 g/kg, male rats, Day 28, high dose TAZF 3.7 g/kg by gavage, read-out: Cmax) of 7.97 ± 7.64 ng/mL and a Tmax ([2]; male, male rats, Day 1, highest dose (berberine 72.08, epiberberine 7.42, coptisine 7.42, palmatine 18.26, jatrorrhizine 2.80, columbamine 5.93 mg/kg)) of 4 h. The AUC(0-t) ([2]; male, male rats, Day 1, highest dose (berberine 72.08, epiberberine 7.42, coptisine 7.42, palmatine 18.26, jatrorrhizine 2.80, columbamine 5.93 mg/kg), read-out: AUC0-t mean) was 101 ng·h/mL, the Cmax ([2]; male, male rats, Day 1, highest dose (berberine 72.08, epiberberine 7.42, coptisine 7.42, palmatine 18.26, jatrorrhizine 2.80, columbamine 5.93 mg/kg), read-out: Cmax mean) was 17.7 ng/mL and the Tmax [2, 8] was 10 h. The AUC(0-t) ([2]; male, male rats, Day 1, lowest dose (berberine 8.01, epiberberine 0.82, coptisine 1.38, palmatine 2.03, jatrorrhizine 0.31, columbamine 0.66 mg/kg), read-out: AUC0-t mean) was 52 ng·h/mL, the Cmax ([2]; male, male rats, Day 1, lowest dose (berberine 8.01, epiberberine 0.82, coptisine 1.38, palmatine 2.03, jatrorrhizine 0.31, columbamine 0.66 mg/kg), read-out: Cmax mean) was 11.8 ng/mL and the half-life [2, 8] was 52.9 h. For the same molecule, the Tmax [2, 9] was 1.83 h, the AUC(0-t) ([2]; male, male rats, Day 1, middle dose (berberine 24.03, epiberberine 2.47, coptisine 2.47, palmatine 6.09, jatrorrhizine 0.93, columbamine 1.98 mg/kg), read-out: AUC0-t mean) was 74.5 ng·h/mL and the Cmax ([2]; male, male rats, Day 1, middle dose (berberine 24.03, epiberberine 2.47, coptisine 2.47, palmatine 6.09, jatrorrhizine 0.93, columbamine 1.98 mg/kg), read-out: Cmax mean) was 15.4 ng/mL. It also gave a half-life [2, 9] of 68 h, a Tmax [2, 10] of 1.17 h and an AUC(0-t) ([2]; male, male rats, Day 28, highest dose (berberine 72.08, epiberberine 7.42, coptisine 7.42, palmatine 18.26, jatrorrhizine 2.80, columbamine 5.93 mg/kg), read-out: AUC0-t mean) of 25.6 ng·h/mL. For the same molecule, the Cmax ([2]; male, male rats, Day 28, highest dose (berberine 72.08, epiberberine 7.42, coptisine 7.42, palmatine 18.26, jatrorrhizine 2.80, columbamine 5.93 mg/kg), read-out: Cmax mean) was 7.97 ng/mL, the half-life [2, 10] was 4.48 h and the Tmax [2, 11] was 0.83 h. For the same molecule, the AUC(0-t) ([2]; male, male rats, Day 28, lowest dose (berberine 8.01, epiberberine 0.82, coptisine 1.38, palmatine 2.03, jatrorrhizine 0.31, columbamine 0.66 mg/kg), read-out: AUC0-t mean) was 8.62 ng·h/mL, the Cmax ([2]; male, male rats, Day 28, lowest dose (berberine 8.01, epiberberine 0.82, coptisine 1.38, palmatine 2.03, jatrorrhizine 0.31, columbamine 0.66 mg/kg), read-out: Cmax mean) was 16.4 ng/mL and the half-life [2, 11] was 11.1 h. For the same molecule, the Tmax [2, 12] was 12 h, the AUC(0-t) ([2]; male, male rats, Day 28, middle dose (berberine 24.03, epiberberine 2.47, coptisine 2.47, palmatine 6.09, jatrorrhizine 0.93, columbamine 1.98 mg/kg), read-out: AUC0-t mean) was 33.3 ng·h/mL and the Cmax ([2]; male, male rats, Day 28, middle dose (berberine 24.03, epiberberine 2.47, coptisine 2.47, palmatine 6.09, jatrorrhizine 0.93, columbamine 1.98 mg/kg), read-out: Cmax mean) was 7.78 ng/mL. The half-life [2, 12] was 2.72 h and the “Systemic exposure after 28 days of administration vs single administration” value ([2]; rats, oral TAZF) was “much lower”.
